Entries after “also recorded” stand apart in the source; their conditions may differ.
Assays:
[1] = molecular target: T1, beta-amyloid 1-42 oligomer (20% biotin) (Homo sapiens, UniProt P05067); assay: Scintillation proximity assay (SPA), direct/saturation binding of tritium labeled probe to soluble oligomers
T1 construct: 12 μg beta-amyloid 1-42 oligomer (20% biotin); purchased Bachem H-5642; host or cells: synthetic peptide
Description: To prepare soluble oligomer, the film was dissolved in appropriate amount of dry DMSO (Sigma), and Ham's F12 media (Biosource) or PBS (Sigma, D8537) was added and incubated at 4° C. for 24 hours (final concentration of 200 uM or 0.9 mg/mL beta-amyloid in 2% DMSO). The tube containing the soluble oligomers was centrifuged at 13,000 rpm for 5 mins, and its supernatant was transferred to a clean tube.
Lyophilized Streptavidin-Ysi beads (GE Healthcare) were reconstituted to 100 mg/mL in deioniozed water, and then further diluted in deionized water to give a suspension containing 0.25 mg/10 μl water. Unlabeled 49b and other benzofuran probes were dissolved in DMSO to give a final stock concentration of 15 mM.
For the saturation-binding assay, isotopic dilution of radiolabeled 49b with unlabeled 49b was performed. ^3H-49b was added to 500 uM of unlabeled 49b to a final concentration of 50 μCi/mL ^3H-49b. The probe solution was then serially diluted in PBS to give six solutions giving 6.6, 13.1, 26.3, 52.5, 105, or 210 uM in the final assay well. Each concentration of the probe solution was incubated with 12 μg beta-amyloid 1-42 oligomer (20% biotin) or 1-40 (20% biotin) fibrils in a total volume of 90 μl. Assays were incubated at room temp for 2 hrs before addition of 10 μL YSi-streptavidin (0.25 mg) SPA bead. Assays were set-up in triplicate in 96-well NBS plates (Costar). Assays were incubated overnight and counted the following morning. […] Assay conditions were the same as described in saturation binding assay.
Data analyses were performed using Sigma Plot or GraphPad Prism® version 4. Curves were fitted using non-linear regression. KD values and IC50 values were estimated from the binding curves.
A direct binding assay using tritium labeled 49b was performed against oligomers or fibrils by scintillation proximity assay (SPA). Beta-amyloid containing 20% biotin and tritiated 49b were incubated in solution for two hours prior to addition of the Ysi-Streptavidin beads.

[2] = molecular target: T2, beta-amyloid 1-40 (20% biotin) fibrils (Homo sapiens, UniProt P05067); assay: Scintillation proximity assay (SPA), direct/saturation binding of tritium labeled probe to fibrils; conditions: immobilized fibrils, identical conditions
T2 construct: purchased Bachem H-1194; biotinylated H-5914; host or cells: synthetic peptide
Description: (§1) B. Insoluble A-beta (1-40) fibril formation: Lyophilized human beta-amyloid 1-40 peptide (Catalog number H-1194, Bachem) was solubilized with HFIP to produce a dry clear film following the process described above for beta-amyloid 1-42. The clear film of beta-amyloid 1-40 was diluted with distilled water to achieve a 6 mg/mL concentration. […] The clear solution was diluted to 1 mg/mL with PBS, pH 7.4 to obtain a final concentration of 1 mg/mL beta-amyloid 1-40, and then incubated at 37° C. on an orbital shaker at 200 RPM for 4 days. A cloudy solution was produced, and the fibril production was confirmed by measuring changes in fluorescence of Thioflavin T, as well as by atomic force microscopy and transmission electron microscopy. Fibrils were used immediately after their production was confirmed.
For SPA and atomic force microscopy (AFM) experiments, preparations of soluble oligomers and fibrils contained 20% biotinylated beta-amyloid 1-42 and 1-40, respectively (H-5642, H-5914, Bachem). […]
For the saturation-binding assay, isotopic dilution of radiolabeled 49b with unlabeled 49b was performed. ^3H-49b was added to 500 uM of unlabeled 49b to a final concentration of 50 μCi/mL ^3H-49b. […] Assays were incubated overnight and counted the following morning. […]

beta-amyloid fibrils = molecular target: T3, beta-amyloid fibrils (Homo sapiens, UniProt P05067); assay: Ex vivo fluorescent binding assay, pre-formed fibrils on naive rat brain sections; conditions: 50 μM probe, naive rat brain section, fluorescence microscopy
T3 construct: Lyophilized human beta-amyloid 1-40 peptide (Catalog number H-1194, Bachem); purchased Bachem H-1194; host or cells: synthetic peptide
Description: as §1, with “Fibrils were used immediately after their production was confirmed.” left out
A 1/100th dilution of the secondary antibody Alexa Fluor 594-goat anti-mouse IgG (Molecular Probes) in PBS was applied onto the slides, and incubated at room temperature for 1.5 hours. […] Microscopic examination and imaging was performed using a Leica wide-field fluorescence microscope using filter cube A (band pass 340-380 nm with a 400 nm dichroic mirror and a long pass 400 nm suppression filter) for 49b, cube E4 (band pass 436 nm with 455 dichroic mirror and a long pass 470 nm suppression filter) for Thioflavin T, and TX2 (band pass 520-600 nm with 595 nm dichroic mirror and 645/75 band pass suppression filter) for 6E10 immunostaining. […]

T1 sequence (P05067 672-713 limits assumed): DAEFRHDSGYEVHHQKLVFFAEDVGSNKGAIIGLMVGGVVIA
T2 sequence (P05067 672-711 limits assumed): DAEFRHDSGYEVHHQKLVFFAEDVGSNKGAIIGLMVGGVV
T3 sequence (P05067 672-711 limits assumed): as above

Kd ([1]; SPA saturation binding of 3H-49b, isotopic dilution with unlabeled 49b): 50 µM
Bmax ([1]; SPA saturation binding, oligomers): 60-80 nmol/mg beta-amyloid
molar ratio probe : beta-amyloid ([1]; from Bmax, oligomers): 1 probe: 3-4 beta-amyloid
staining of immobilized fibrils (beta-amyloid fibrils): No staining was observed
SMILES: O=Cc1ccc(-c2oc3ccccc3c2CO)o1 [Compound 49b, 2-(2-formyl-5-furanyl)-3-hydroxymethyl benzofuran]
affinity to fibrils [2]: no measurable affinity; also recorded: No demonstrable affinity
